The text below walks through data of publication PMC6954543, “A window-of-opportunity trial of the CXCR1/2 inhibitor reparixin in operable HER-2-negative breast cancer” (Breast Cancer Research : BCR, 2020).

Structures are written as SMILES.

For series [1], the system named is CD18+ PMNs. Kind of series: Adhesion molecule expression on peripheral blood PMNs by flow cytometry. As to conditions: after 21 days of treatment vs baseline; p < 0.05. The class given is in vivo, human. The method, then:
The expression of adhesion molecules (CD11b, CD18, and CD66b) on PMNs was investigated. Typically, 100 µL of whole blood were incubated with 10nM CXCL8 for 10 minutes at room temperature to upregulate the expression of adhesion molecules. Untreated whole blood samples were included as control. We measured the percentage of PMNs that expressed CD11b, CD18, and CD66b as well as the Mean Fluorescence of Intensity (MFI) of each adhesion molecule as a measure of expression density by flow cytometry.

The test system of series [2] is CXCR1/2+ cells. Also on record: method as in PMID 22996693. As to conditions: preclinical models; cited from earlier work.
Series [3] has as its system CXCL8 and other cytokines. Kind of series: Serum cytokine levels (Milliplex/Luminex). It counts as in vivo, human. As to conditions: day 1 vs day 21. The method, then:
The concentrations of interleukin (IL)-1β, IL-6, CXCL8, tumor necrosis factor (TNF)-α, granulocyte macrophage colony stimulating factor (GM-CSF), vascular endothelial growth factor (VEGF), and basic fibroblast growth factor (b-FGF) were measured in sera obtained from patients on days 1 and 21 of the study.
In brief, serum cytokines levels were measured using a method, as previously published. Serum samples were processed and aliquoted within 24 hours for archiving at -80 °C. Samples were analyzed in batch using Milliplex bead kits (EMD Millipore Corporation, Billerica, MA) according to the manufacturer’s protocol with overnight incubations and an additional point added at the low end of the standard curve, and analyzed using a Luminex LX100 (Luminex Corporation, Austin, TX). BioPlex control and analysis software Version 5.0, (BioRad, Hercules, CA) was used.

Series [4] concerns ALDH1, CD24 and CD44 transcripts. As to the kind of experiment: CSC markers in core biopsies by RT-PCR. The class given is in vivo, human. As to conditions: 14 patients. The method, then:
Core biopsy samples were placed in RNAlater, suspended in 700 μL of TRIzol® LS Reagent (Invitrogen) and homogenized using Bullet Blender (Next Advance Inc.). Next, RNA was extracted using the miRNeasy mini kit (Qiagen) and processed with the QIACube (Qiagen) automated low-throughput sample prep system. Thereafter, the isolated RNAs were reverse transcribed to cDNA (High Capacity cDNA Reverse Transcription Kit, ABI) and subsequently underwent quantitative RT-PCR (qRT-PCR) using 7900HT Fast Real-Time PCR System (ABI) to detect transcripts of markers associated with CSC (ALDH1, CD44, CD24, Akt, and PI3K), EMT (TWIST1, FOXC2, SNAIL1, SNAIL2, TG2, and ZEB1), epithelial cells (KRT19 and EpCAM), and leukocytes (CD45). We used average delta Ct (dCT) < 2 as a cutoff to determine the relative gene expression level. Since normal tissue was not available to act as the normalizer, we used GAPDH as the endogenous control (dCT = CTtarget − CTendogenous control).

Series [5] has as its system P-AKT. Kind of series: P-AKT staining of core biopsies by IHC. It counts as in vivo, human. As to conditions: day 21 (16/20 at baseline). The method, then:
(§1) All IHC analyses and scoring for extent (0 to 4) and intensity (0 to 3) were performed at the Houston Memorial Hermann Pathology laboratory as previously described. After antigen retrieval (Tris-Cl, pH 9.0), paraffin-embedded sections of sample tumors were incubated for 1 h at room temperature with the following antibodies: anti-human CXCR1 (rabbit polyclonal to CXCR1 - C-terminal, ab137351; Abcam, Cambridge, MA), anti-human CD31 (clone JC70A, #IS610; Dako, Glostrup, Denmark), anti-human p62 (clone SQSTM1/p62, # 5114; Cell Signaling), anti-human AKT (rabbit polyclonal to pan-AKT, # ab8805; Abcam), anti-human FAK (clone pY861, #44-626G; Invitrogen, Qiagen, Carlsbad, CA), anti-human phospho-AKT (clone Ser473 (D9E), #4060; Cell Signaling), anti-human phospho-FAK (clone Y397, #ab4803; Abcam), and anti-human LC3B (clone D11, #3868; Cell Signaling). For the evaluation of extent, the following semi-quantitative score method (0 to 4) was used: 0, no positive cells; 1, 1–25%; 2, 26–50%; 3, 51–75%; and 4, 76–100%.

Series [6] relates to P62. Kind of series: p62 expression on tumor cells by IHC. It counts as in vivo, human. As to conditions: IHC score 0 to 4. The method, then: as §1
Series [7] can be described thus: Pharmacokinetics of single-agent oral reparixin in plasma. The class given is in vivo, human. The method, then:
Samples for pharmacokinetics (PK) were collected at selected sites in consenting patients. Venous blood samples (6 mL) were collected from a forearm vein at times 0.0, 0.25, 0.5, 1.0, 2.0, 4.0, 6.0, and 8.0 h following reparixin administration on days 1 and 21. The blood samples were immediately centrifuged at 4 °C, 1200 relative centrifugal force (RCF), for 10 min, and the plasma collected. Each plasma sample was divided into 2 aliquots and stored in 2 pre-labeled polypropylene screw-capped tubes (about 2 mL each) at − 20 °C until analysis. The analysis was performed at the Dompé Analytical Development Laboratories in L’Aquila, Italy.

The subject of series [8] is monocytes and PMNs. As to the kind of experiment: Intracellular cytokine production by monocytes and PMNs by flow cytometry. As to conditions: without or with activation by LPS and/or CXCL8; data not shown. It counts as in vivo, human. The method, then: Intracellular cytokine production by peripheral blood monocytes and PMNs were assessed using a modification of previously published procedure. Briefly, monocytes and PMNs in whole blood were activated with CXCL8 (10nM), LPS ([…]), and LPS+CXCL8 for 2 hours at 37 °C before the addition of Brefeldin A (BFA) for another 3 hours to block the transportation of the intracellular cytokines from the Golgi to the cell surface. Thereafter, red blood cells were lysed with 1×FACSTM Lysing Solution (BD Biosciences) and the membrane of activated cells permeabilized with 1×FACSTM Perm 2 solution (BD Biosciences). Next, the activated monocytes and PMNs were stained with fluorochrome-conjugated specific antibodies to IL-1β, TNF-α, CXCL8, and IL-6 before the samples were analyzed by flow cytometry. The percentages of monocytes and PMNs that produced IL-1β, TNF-α, CXCL8, and IL-6 were recorded.
On the technique in general: In flow cytometry, cells or beads pass a laser one at a time.

Series [9] has as its system CXCR1. Kind of series: CXCR1 expression on tumor cells by IHC. The class given is in vivo, human. As to conditions: largest proportion at levels 4 and 3 at baseline; level 3 and 2 or lower at day 21. The method, then:
as §1

Setting [10] is: female, human, in vivo, po, 1000 mg.

Turning to `CC(C)Cc1ccc([C@@H](C)C(=O)NS(C)(=O)=O)cc1` [reparixin], in series [1], the “percentage of CD18+ PMNs following in vitro stimulation with CXCL8” value is “decreased”. Further, in [2], the “recruitment of CXCR1/2+ cells from the bloodstream to visceral sites” value is “reduce”. Moreover, the “other cytokines (IL-1β, IL-6, TNF-α, GM-CSF, VEGF, b-FGF), change” value in series [3] is reported as “No statistically significant changes”. Moreover, in series [4], the “patients negative for CSC at both baseline and day 21” value was determined as 6 patients; the “patients with CSC (transcripts for CD44 but not CD24) at both baseline and day 21” value is on record as “Five”. Also, the “ALDH1 transcripts at day 21” value in [4] (1/14 expressed ALDH1 at baseline) is on record as “all patients were negative”. Besides, the “patients with value of 0 for P-AKT, extent and intensity” value in [5] is 11/15. In [6], the “P62 extent (percentage of positive cells), change baseline to day 21” value is listed as “decreased from level 4 to level 3 or lower in the majority of patients”. For the same compound, in series [7] (setting [10]), the Tmax came out at 1 h and the half-life was ~120 min. For the same compound, in series [7] (human, in vivo, po), the “bioavailability following oral administration” value was “high bioavailability”. Moreover, the “systemic exposure (Cmax and AUClast), change from day 1 to day 21” value in series [7] (human, in vivo, po, 1000 mg) is listed as “did not change”. In addition, the “accumulation upon multiple dosing” value in [7] (oral 1000 mg t.i.d. for 21 days) is recorded as “no accumulation”. Besides, the “production of inflammatory cytokines (CXCL8, IL-6, TNF-α, IL-1β) by monocytes and PMNs” value in series [8] was “No statistically significant difference”. For the same compound, in series [9], the “CXCR1 positivity, extent and intensity, change at day 21” value was “decrease”.

What is called Tmax is the time from dosing to the highest level. As usually defined, the half-life is the time in which the quantity being followed falls by half. Higher therefore signals slow loss.
